The source of these data is US11718610B2, “Compounds containing benzosultam” (MEDSHINE DISCOVERY INC., priority 2020, dated 2023).

Each structure is given as a SMILES string.

The series in a line: Pharmacokinetics of single intravenous and oral administration in dogs. The conditions noted are these: dog. In kind it is in vivo. The protocol: Experimental Embodiment 6: Pharmacokinetics Study of Single Intravenous and Oral Administration in Mice and Dogs
This experiment was aimed to study the pharmacokinetics of the test compound in mice and dogs in vivo after a single oral administration of the compound.
After intravenous or oral administration, blood samples were collected and the actual blood collection time was recorded. After the blood sample was collected, the sample was immediately transferred to a labeled centrifuge tube containing K2-EDTA, and then the plasma was taken after centrifugation. The plasma was transferred to a precooled centrifuge tube, quickly frozen in dry ice, and stored in an ultra-low temperature refrigerator at −70±10° C. until LC-MS/MS analysis.
Pharmacokinetic software was used to process the plasma drug concentration data of the compound with […] model. The peak concentration (Cmax) and peak time (Tmax), as well as the end time of quantification, were obtained directly from the plasma drug concentration-time graph. The following pharmacokinetic parameters were calculated by logarithmic linear trapezoidal method: half-life (T1/2), apparent distribution volume (Vdss) and clearance rate (Cl), and the area under the time-plasma concentration curve from 0 to the end time point (AUC0-last).

Broadly, the bioavailability is the share of a dose that reaches the circulation, judged against a reference dose that is usually intravenous. A high value points to much systemic uptake. `COc1cc(F)cc([C@@H](CO)NC(=O)[C@@H](C)N2Cc3ccc(-c4nc(NC5CCOCC5)ncc4Br)cc3S2(=O)=O)c1` [Compound 3]: where the note is “intravenous injection, 2 mg/kg/day”, the Apparent distribution volume came out at 0.112 L/kg. For the same compound, under “oral, 10 mg/kg/day”, the “Maximum plasma drug concentration” value came out at 26700 nmol/L and the Peak time was found to be 3.00 h. In addition, the clearance (plasma, intravenous injection, 2 mg/kg/day, read-out: Clearance rate) came to 1.34 mL/min/kg. Moreover, the half-life (plasma, intravenous injection, 2 mg/kg/day, read-out: Half-life (T1/2) (converted)) was 4.3 h. For the same compound, the bioavailability (plasma, oral 10 mg/kg/day vs intravenous 2 mg/kg/day) was 59.8%.
